A short description of series [1]: Absolute Mn content in heart tissue by ICP-MS. Type of series: in vivo, C57Bl/6 mice. The settings on record: 50 mg/kg SEA0400; approximately 6 hours post-MnCl2. The procedure:
As previously stated, all mice were anesthetized during the experimental procedures: contrast agent infusion, drug administration, and imaging sessions. The mice were allowed to recover between procedures so as to […] the time each mouse was under anesthesia to 2.5 hours, which was then followed by a recovery period of at least 2.5 hours. This protocol minimized any physiological effects caused by the anesthesia; imaging time points selected for each mouse followed these guidelines. In addition, efforts were made to alter the time interval between successive data points so as not to bias the results with potential anesthesia effects. […] A subgroup of randomly selected animals (n=16) was sacrificed immediately after imaging to measure absolute Mn content in heart tissue (n=14) and blood samples (n=6) by inductively coupled plasma-mass spectrometry (ICP-MS) analysis ([…] Ltd., North Vancouver, BC, Canada). The samples were harvested approximately one hour after the initiation of the final T1-map. This time delay was due to the length of time required to acquire the T1-map, and the time required to harvest the samples, and remained constant for all of the samples. […] No statistically significant differences between the groups were found following linear least-square fitting to the data. […]

Series [2] is described as follows: Heart rate post-MnCl2 infusion.
Method: MEMRI experiments were performed in 62 healthy adult male C57Bl/6 mice (6-14 weeks old, 24.0±1.9 g) following the guidelines of the Institutional Animal Care and Use Committee at the Medical College of Georgia, Augusta, Ga., USA. For all experimental procedures, the animals were anesthetized with a mixture of medical air, oxygen (1:1) and 2.5-3.0% isoflurane. The heart rate (HR) was maintained at 436±42 beats per minute (bpm) throughout the experiment by carefully adjusting the level of isoflurane. A custom-made water bed set at 38° C. maintained a constant animal body temperature in the cradle throughout the MEMRI procedure.
MEMRI data were acquired on a 7.0-T 20-cm horizontal bore Bruker BioSpec MRI spectrometer (Bruker Instruments, Billerica, Mass., USA) equipped with a micro-imaging gradient insert (950 mT/m). […] A standard Bruker volume coil (35 mm inner diameter) was used to transmit and receive at ^1H frequency (300 MHz). Electrocardiographic (ECG) and respiratory signals were monitored by a physiological monitoring system (SA Instruments, INC., Stony Brook, N.Y.) with the ECG signal used to gate the images. All images were gated from the ECG R-wave acquired during end-diastole. Short axis images were acquired midway through the left ventricle and perpendicular to the long axis of the heart. A T1-weighted MRI Gradient Echo Flow Compensation (GEFC) pulse sequence was used for slice localization with the imaging parameters as follows: matrix=128×128; TE=3.5 ms; TR=35 ms; slice thickness=1.0 mm; FOV=3.0×3.0 cm; flip angle=60° and NA=6. TR was purposely set at a time shorter than the R-R period (138±1.5 ms) detected on the ECG. Therefore, the true repetition time for the imaging sequence was the R-R period.
A further series concerns the target T1, NCX (Mus musculus, UniProt P70414).
T1 construct: from tissue; host or cells: myocardium (left ventricular free wall) of living C57Bl/6 mice
In words: MEMRI T1-mapping of LV Wall ΔR1 washout (Mn2+ efflux) after MnCl2 infusion, with or without NCX inhibitor. The format is in vivo, C57Bl/6 mice. The following applies: for average LV Wall ΔR1: 4.9-5.9 hours post-MnCl2 infusion; for ΔR1,0 (extrapolated ΔR1 at the time of MnCl2 infusion): fit t>=1 hour.

As to `CCOc1ccc(Oc2ccc(OCc3cc(F)ccc3F)cc2)c(N)c1` [SEA0400], the “absolute cardiac Mn concentration” value in series [1] amounted to 27.1 µg/g. The “average post-MnCl2 infusion heart rate” value in series [2] (20 mg/kg SEA0400) was determined as 449±30 bpm; in series [2] (50 mg/kg SEA0400), 443±28 bpm. In addition, in series [2] (control, 20 mg/kg and 50 mg/kg SEA0400, p=0.08), the “difference in heart rate between the experimental groups” value was “No significant differences in HR”. In addition, the “average LV Wall ΔR1” value at NCX (20 mg/kg SEA0400) worked out at 1.72 ± 0.24 s⁻¹; at NCX (50 mg/kg SEA0400), 2.46 ± 0.29 s⁻¹. The “half-life versus control group (extra sum-of-squares F test)” value is recorded as “not statistically different from the control group” at NCX (20 mg/kg SEA0400, p=0.54) and “significantly different from the control group” on NCX (50 mg/kg SEA0400, p=0.006). Also, the “ΔR1,0 (extrapolated ΔR1 at the time of MnCl2 infusion)” value is 4.8 ± 0.2 s⁻¹ on NCX (20 mg/kg SEA0400 i.p. one hour post-MnCl2) and 4.3 ± 0.4 s⁻¹ on NCX (50 mg/kg SEA0400 i.p. one hour post-MnCl2).

Values taken from US8728439B2, “System and method for indirectly measuring calcium ion efflux” (Celtrast LLC, priority 2008, dated 2014).
